According to PMC10758829 (Heliyon, 2023):

Legend:
[1] = target: dipeptidyl peptidase IV (DPP-IV) (Homo sapiens, UniProt P27487); test: Gly-Pro-pNA chromogenic assay with recombinant enzyme; format: biochemical
[2] = tested on: NCC(=O)N1CCC[C@H]1C(=O)Nc1ccc([N+](=O)[O-])cc1; test: purified protein; format: biochemical, Homo sapiens

dipeptidyl peptidase IV (DPP-IV), sequence (P27487 39-766): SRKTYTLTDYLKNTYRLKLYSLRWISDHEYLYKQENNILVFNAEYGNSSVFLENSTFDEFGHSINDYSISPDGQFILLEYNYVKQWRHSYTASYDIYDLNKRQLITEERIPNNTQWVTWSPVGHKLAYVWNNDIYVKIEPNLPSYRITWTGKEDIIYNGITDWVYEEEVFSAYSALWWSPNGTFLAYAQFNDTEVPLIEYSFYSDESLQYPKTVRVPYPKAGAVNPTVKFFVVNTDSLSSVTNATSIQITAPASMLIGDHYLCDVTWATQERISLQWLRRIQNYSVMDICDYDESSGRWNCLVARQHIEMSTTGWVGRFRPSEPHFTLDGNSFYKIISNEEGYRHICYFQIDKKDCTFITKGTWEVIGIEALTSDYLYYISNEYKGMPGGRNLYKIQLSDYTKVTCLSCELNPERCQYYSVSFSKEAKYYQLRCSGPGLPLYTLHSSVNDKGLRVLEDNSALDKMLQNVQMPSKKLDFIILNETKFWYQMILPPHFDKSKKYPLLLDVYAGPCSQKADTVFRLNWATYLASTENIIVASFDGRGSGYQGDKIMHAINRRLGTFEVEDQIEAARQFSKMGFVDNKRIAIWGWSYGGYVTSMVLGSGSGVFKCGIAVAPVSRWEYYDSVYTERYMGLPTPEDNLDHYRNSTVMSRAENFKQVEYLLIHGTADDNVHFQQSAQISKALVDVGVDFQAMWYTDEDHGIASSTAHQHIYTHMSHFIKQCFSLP

Row | Compound | IC50 [1] [µM] | Vmax [2] [µM/min]
1 | C=C(C)[C@@H]1CCC(C)=C[C@H]1c1c(O)cc(CCCCC)cc1O [CBD, cannabidiol] | 21.9 | 
2 | CCCCCc1cc(O)c(C/C=C(\C)CCC=C(C)C)c(O)c1 [CBG, cannabigerol] | 20.2 | 
3 | CCCCCc1cc(O)c2c(c1)OC(C)(C)c1ccc(C)cc1-2 [CBN, cannabinol] | 12.9 | 
4 | dipeptidyl peptidase IV (DPP-IV) (Homo sapiens) |  | 1200
